Assay results taken from US9408831B2, “Methods for treating respiratory viral infection” (Celgene Corporation, priority 2010, dated 2016).
Entries after “also recorded” stand apart in the source; their conditions may differ.

What was measured:
Type in all cases: in vivo, mice
[1] = system: influenza X31 strain (H3N2)
[2] = system: influenza X31 strain (H3N2); experiment: Total viable cell counts in the airway (BAL) and lung tissue, trypan blue exclusion; settings: 100 μg/mouse i.p. daily
[3] = system: influenza X31 strain (H3N2); experiment: Macrophages and neutrophils in airspaces and lung by flow cytometry
[4] = system: influenza X31 strain (H3N2); experiment: T cell recruitment (CD4, CD8 surface markers) by flow cytometry
[5] = system: influenza X31 strain (H3N2); settings: day 7
[6] = system: influenza X31 strain (H3N2); settings: lung homogenates, FIG. 9
[7] = day 7, between the animal groups
[8] = early (day 3), 100 μg/mouse i.p. daily, FIG. 5

With COc1ccc(C(CC(N)=O)N2Cc3ccccc3C2=O)cc1OC (stereo not shown) [Compound 1] the “weight loss (percent original weight)” value ([1]; 100 μg/mouse i.p. daily days 0-6, vs vehicle control and untreated, FIG. 1) was “significantly reduced weight loss”, the visible health appearance ([1]; controls hunched and cachexic on day 5) was “appeared visibly in better health” and the “cellular infiltrate into the airway (BAL), total viable cells” value ([2]; […], FIG. 2) was “significantly reduced the cellular infiltrate”. For the same compound, the “cell counts in the airway (BAL fluid) relative to infected mice not treated” value ([2]; day 3) was “less than half”, the “reduction of cellular infiltrate in the lung parenchyma” value ([2]; day 3 or day 7, FIG. 2) was “not observed” and the “reduction of cellular infiltrate into the airway (BAL)” value ([2]; day 7, FIG. 2) was “not observed”. For the same compound, the “proportion of macrophages among cells recovered from the airspaces” value ([3]; […], 100 μg/mouse i.p. daily, FIG. 3) was “higher proportion”, the “neutrophils (CD11c+ and Ly6g+) in the airspaces, reduction in total cells” value ([3]; day 3, 100 μg/mouse i.p. daily, FIG. 4) was “primarily associated with neutrophils” and the “number of macrophages, all sites” value [3, 7] was “no significant differences”. For the same compound, the “number of neutrophils, all sites” value [3, 7] was “no significant differences”, the “CD8+ T cells” value ([4]; any time point analyzed (day 3, day 7)) was “No difference” and the “early CD4+ T cell recruitment to the airways (BAL)” value ([4]; day 3, 100 μg/mouse i.p. daily, FIG. 5) was “reduced”. For the same compound, the “T cell recruitment / later T cell populations (CD4)” value ([4]; day 7, airway and lung, FIG. 6) was “no differences; also recorded: did not affect later T cell populations”, the “CD4+ T cells in the lung parenchyma” value [4, 8] was “corresponding accumulation” and the T cell recruitment [4, 8] was “reduced T cell recruitment; also recorded: affected early T cell recruitment”. The “CD8+ T cells cytokine expression” value [5] was “remained unchanged”, the “CD4+ T cells producing IFNγ in the lung tissue” value ([5]; vs untreated mice and vehicle controls, FIG. 7) was “partial reduction” and the recovered viral titer ([6]; early stages of viral replication (day 3)) was “blunted the recovered viral titer”. The peak viral load ([6]; 100 μg/mouse i.p. daily) was “reduced peak viral load”.
